In patent US12569494B2, “Compositions and methods to promote thymic regeneration” (Fred Hutchinson Cancer Center, priority 2018, dated 2026):

Tests used:
Ex-vivo ECs (exECs) = assay: Bmp4 expression by qPCR in ex-vivo thymic endothelial cells (exECs); assay type: cell-based, mice; settings: 50 μM Rho GTPase inhibitor, 20 h overnight, qPCR (FIG. 7A)
Experimental: (§1) FIGS. 7A, 7B. Rho GTPase inhibition, using several small molecule inhibitors, promotes the expression of Bmp4 and the II12p40 subunit of IL-23. Ex-vivo ECs (exECs) were generated from FACS purified ECs from the thymus and transduced with lentivirus containing the adenoviral gene E4orf1, as described here Proc Natl Acad Sci USA. 2008 Dec. 9; 105(49):19288-93. The exECs were cultured in Advanced DMEM-F12 (Gibco Life Technologies 12634-028) with 20% FBS, 10 mM HEPES buffer, 1% Glutamax (Life Technologies 35050061), 1% Pen Strep, 1% Non-Essential Amino Acids (Life Technologies 11140050), 50 μg/ml Endothelial cell supplement (Alfa Aesar J64516, BT-023), 5 μM SB431542 (R&D Systems 1614), 20 ng/ml FGF (Peprotech 100-18B), 10 ng/ml VEGF (Peprotech 450-32) at 37° C., 5% O2 and 5% CO2. […] Bmp4 and II-12p40 expression were determined by qPCR (exECs, n=3-6 wells from 2 separate experiments; DCs, n=3 mice).
(§2) FIGS. 10A, 10B: In vitro treatment with a synthetic miR29c mimic reduces the expression of Bmp4 & IL-23, in ECs and DCs, respectively. exECs and DCs were generated and maintained as described in FIGS. 7A, 7B. […] Bmp4 and IL-23 expression were determined by qPCR (n=3).

[1] = test system: Thymic dendritic cells (DCs); assay: Il-12p40 / IL-23 expression by qPCR in thymic dendritic cells (DCs); assay type: cell-based, C57BL/6 mice; settings: 50 μM Rho GTPase inhibitor, 20 h overnight, qPCR (FIG. 7B)
Experimental: as §1, §2

exECs = assay: miR29 family expression by qPCR in exECs after Rac1,2,3 inhibition; assay type: cell-based, mice; settings: 50 μM inhibitor, qPCR (FIG. 11)
Experimental: FIGS. 7A, 7B. Rho GTPase inhibition, using several small molecule inhibitors, promotes the expression of Bmp4 and the II12p40 subunit of IL-23. Ex-vivo ECs (exECs) were generated from FACS purified ECs from the thymus and transduced with lentivirus containing the adenoviral gene E4orf1, as described here Proc Natl Acad Sci USA. 2008 Dec. 9; 105(49):19288-93. The exECs were cultured in Advanced DMEM-F12 (Gibco Life Technologies 12634-028) with 20% FBS, 10 mM HEPES buffer, 1% Glutamax (Life Technologies 35050061), 1% Pen Strep, 1% Non-Essential Amino Acids (Life Technologies 11140050), 50 μg/ml Endothelial cell supplement (Alfa Aesar J64516, BT-023), 5 μM SB431542 (R&D Systems 1614), 20 ng/ml FGF (Peprotech 100-18B), 10 ng/ml VEGF (Peprotech 450-32) at 37° C., 5% O2 and 5% CO2. Thymic dendritic cells (DCs) were obtained from the thymus of 6 week old C57BL/6 mice, where post enzymatic digestion CD11c+ cells were isolated using magnetic beads (Miltenyi Biotech 130-108-338), and cultured in DMEM plus 10% FBS and 1% PenStrep at 37° C., 21% O2 and 5% CO2. The exECs and DCs were separately treated with 50 μM of the individual Rho GTPase inhibitors: RhoA (Millipore/Sigma, Rhosin, CAS 1173671-63-0, 555460-25MG), ROCK (TC-S 700, Tocris, 4961), Rac1,2,3 (Tocris, EHT 1864, 2161), and Cdc42 (Millipore/Sigma, CDC42 Inhibitor III, ZCL278, 500503) for 20 h overnight before being lysed and prepared for RNA extraction. Bmp4 and II-12p40 expression were determined by qPCR (exECs, n=3-6 wells from 2 separate experiments; DCs, n=3 mice).
FIG. 11. miR29c expression is reduced after Rac1 inhibition in ECs. exECs were treated with 50 μM Rac1,2,3 (Tocris, EHT 1864, 2161) inhibitor as described in FIGS. 7A, 7B. cDNA was prepared from isolated RNA using the Taqman Advanced miRNA cDNA Synthesis kit (Thermo Fisher A28007), and relative miR29c expression was assessed by qPCR (primers from Thermo Fisher A25576).

ECs = assay: BMP4 expression in ECs after ATP; assay type: cell-based; settings: NF-kB independent manner

Row | SMILES | Bmp4 expression (Ex-vivo ECs (exECs)) | iI-12p40 expression [1] | miR29c expression (exECs; compared with untreated) | miR29a levels (exECs) | miR29b levels (exECs) | BMP4 expression (ECs)
1 | Cl.Cl.O=c1cc(CN2CCOCC2)occ1OCCCCCSc1ccnc2cc(C(F)(F)F)ccc12 (racemic) [EHT 1864, 5-(5-(7-(Trifluoromethyl)quinolin-4-ylthio)pentyloxy)-2-(morpholinomethyl)-4H-pyran-4-one dihydrochloride] | significantly upregulated | significantly upregulated | significantly reduced | not reduced | not reduced | –
2 | Nc1ncnc2c1ncn2[C@@H]1O[C@H](COP(=O)(O)OP(=O)(O)OP(=O)(O)O)[C@@H](O)[C@H]1O [ATP] | – | – | – | – | – | induces
3 | Cl.N[C@H](Cc1c[nH]c2ccccc12)C(=O)N/N=C/c1ccc2nccnc2c1 [Rhosin, D-Tryptophan (2E)-2-(6-quinoxalinylmethylene)hydrazide hydrochloride] | significantly upregulated | significantly upregulated | – | – | – | –
